Assay [1] relates to Platelet. The assay is described as follows: Antiaggregating activity in Homo sapiens (human) platelet rich plasma assessed as inhibition of arachidonic acid-induced platelet aggregation at 0.5 uM incubated for 4 min prior to arachidonic acid-induction measured for 5.5 min by turbidometric analysis. Format: functional.
Assay [2] has as its system Platelet. The assay is described as follows: Antiaggregating activity in Homo sapiens (human) platelet rich plasma assessed as inhibition of arachidonic acid-induced platelet aggregation at 1 uM incubated for 4 min prior to arachidonic acid-induction measured for 5.5 min by turbidometric analysis. Format: functional, cell-free.
The subject of assay [3] is Platelet. Nature of the assay: Antiaggregating activity in Homo sapiens (human) platelet rich plasma assessed as inhibition of adrenaline-induced platelet aggregation at 0.5 uM incubated for 4 min prior to adrenaline-induction measured for 5.5 min by turbidometric analysis. It is filed as functional, cell-free.
Assay [4] concerns Platelet. The assay is described as follows: Antiaggregating activity in Homo sapiens (human) platelet rich plasma assessed as inhibition of adrenaline-induced platelet aggregation at 1 uM incubated for 4 min prior to adrenaline-induction measured for 5.5 min by turbidometric analysis. It is filed as functional, cell-free.
In assay [5] the test system is Platelet. Nature of the assay: Antiaggregating activity in Homo sapiens (human) platelet rich plasma assessed as inhibition of adrenaline-induced platelet aggregation at 0.03 uM incubated for 4 min prior to adrenaline-induction measured for 5.5 min by turbidometric analysis. It is filed as functional, cell-free.
The subject of assay [6] is Platelet. The assay is described as follows: Antiaggregating activity in Homo sapiens (human) platelet rich plasma assessed as inhibition of adrenaline-induced platelet aggregation at 0.06 uM incubated for 4 min prior to adrenaline-induction measured for 5.5 min by turbidometric analysis. It is filed as functional, cell-free.
Assay [7] deals with Platelet. Nature of the assay: Antiaggregating activity in Homo sapiens (human) platelet rich plasma assessed as inhibition of adrenaline-induced platelet aggregation at 0.125 uM incubated for 4 min prior to adrenaline-induction measured for 5.5 min by turbidometric analysis. It is filed as functional, cell-free.
The test system of assay [8] is Platelet. The assay is described as follows: Antiaggregating activity in Homo sapiens (human) platelet rich plasma assessed as inhibition of collagen-induced platelet aggregation at 0.06 uM incubated for 4 min prior to collagen-induction measured for 5.5 min by turbidometric analysis. Format: functional, cell-free.
Assay [9] in a line: Antiaggregating activity in Homo sapiens (human) platelet rich plasma assessed as ADP-induced platelet aggregation at 0.03 uM incubated for 4 min prior to ADP-induction measured for 5.5 min by turbidometric analysis (reference value: 54 to 88%). It is filed as functional.
Assay [10] can be described thus: Antiaggregating activity in Homo sapiens (human) platelet rich plasma assessed as disaggregation of ADP-induced platelet aggregation at 0.06 uM incubated for 4 min prior to ADP-induction measured for 5.5 min by turbidometric analysis relative to control. Format: functional.
Assay [11] has as its system Platelet. The assay is described as follows: Antiaggregating activity in Homo sapiens (human) platelet rich plasma assessed as inhibition of ADP-induced platelet aggregation at 0.125 uM incubated for 4 min prior to ADP-induction measured for 5.5 min by turbidometric analysis. It is filed as functional, cell-free.
Assay [12] in a line: Antiaggregating activity in Homo sapiens (human) platelet rich plasma assessed as ristocetin-induced platelet aggregation at 1 uM incubated for 4 min prior to ristocetin-induction measured for 5.5 min by turbidometric analysis (reference value: 65 to 99%). It is filed as functional.
A short description of assay [13]: Antiaggregating activity in Homo sapiens (human) platelet rich plasma assessed as ristocetin-induced platelet aggregation at 0.5 uM incubated for 4 min prior to ristocetin-induction measured for 5.5 min by turbidometric analysis (reference value: 65 to 99%). Format: functional.
The subject of assay [14] is Platelet. Nature of the assay: Antiaggregating activity in Homo sapiens (human) platelet rich plasma assessed as inhibition of ADP-induced platelet aggregation at 0.5 uM incubated for 4 min prior to ADP-induction measured for 5.5 min by turbidometric analysis. It is filed as functional, cell-free.
In assay [15] the test system is Platelet. Nature of the assay: Antiaggregating activity in Homo sapiens (human) platelet rich plasma assessed as inhibition of ADP-induced platelet aggregation at 1 uM incubated for 4 min prior to ADP-induction measured for 5.5 min by turbidometric analysis. It is filed as functional, cell-free.
Assay [16] concerns Platelet. The assay is described as follows: Antiaggregating activity in Homo sapiens (human) platelet rich plasma assessed as inhibition of collagen-induced platelet aggregation at 0.125 uM incubated for 4 min prior to collagen-induction measured for 5.5 min by turbidometric analysis. It is filed as functional, cell-free.
Assay [17] concerns Platelet. The assay is described as follows: Antiaggregating activity in Homo sapiens (human) platelet rich plasma assessed as inhibition of collagen-induced platelet aggregation at 0.5 uM incubated for 4 min prior to collagen-induction measured for 5.5 min by turbidometric analysis. Format: functional, cell-free.
Assay [18] has as its system Platelet. The assay is described as follows: Antiaggregating activity in Homo sapiens (human) platelet rich plasma assessed as inhibition of collagen-induced platelet aggregation at 1 uM incubated for 4 min prior to collagen-induction measured for 5.5 min by turbidometric analysis. It is filed as functional, cell-free.
A short description of assay [19]: Antiaggregating activity in Homo sapiens (human) platelet rich plasma assessed as collagen-induced platelet aggregation at 0.03 uM incubated for 4 min prior to collagen-induction measured for 5.5 min by turbidometric analysis (reference value: 50 to 98%). It is filed as functional.
A short description of assay [20]: Antiaggregating activity in Homo sapiens (human) platelet rich plasma assessed as ristocetin-induced platelet aggregation at 0.03 uM incubated for 4 min prior to ristocetin-induction measured for 5.5 min by turbidometric analysis (reference value: 65 to 99%). Format: functional.
Assay [21] in a line: Antiaggregating activity in Homo sapiens (human) platelet rich plasma assessed as ristocetin-induced platelet aggregation at 0.06 uM incubated for 4 min prior to ristocetin-induction measured for 5.5 min by turbidometric analysis (reference value: 65 to 99%). It is filed as functional.
Assay [22] is described as follows: Antiaggregating activity in Homo sapiens (human) platelet rich plasma assessed as ristocetin-induced platelet aggregation at 0.125 uM incubated for 4 min prior to ristocetin-induction measured for 5.5 min by turbidometric analysis (reference value: 65 to 99%). Format: functional.
Assay [23] can be described thus: Antiaggregating activity in Homo sapiens (human) platelet rich plasma assessed as arachidonic acid-induced platelet aggregation at 0.03 uM incubated for 4 min prior to arachidonic acid-induction measured for 5.5 min by turbidometric analysis (reference value: 55 to 100%). Format: functional.
Assay [24] concerns Platelet. The assay is described as follows: Antiaggregating activity in Homo sapiens (human) platelet rich plasma assessed as inhibition of arachidonic acid-induced platelet aggregation at 0.06 uM incubated for 4 min prior to arachidonic acid-induction measured for 5.5 min by turbidometric analysis. It is filed as functional, cell-free.
In assay [25] the test system is Platelet. The assay is described as follows: Antiaggregating activity in Homo sapiens (human) platelet rich plasma assessed as inhibition of arachidonic acid-induced platelet aggregation at 0.125 uM incubated for 4 min prior to arachidonic acid-induction measured for 5.5 min by turbidometric analysis. Format: functional, cell-free.
The subject of assay [26] is Platelet. Nature of the assay: Antiaggregating activity in Homo sapiens (human) platelet rich plasma assessed as inhibition of collagen-induced platelet aggregation at 0.03 uM incubated for 4 min prior to collagen-induction measured for 5.5 min by turbidometric analysis. It is filed as functional, cell-free.
Assay [27] in a line: Antiaggregating activity in Homo sapiens (human) platelet rich plasma assessed as disaggregation of ADP-induced platelet aggregation at 0.25 uM incubated for 4 min prior to ADP-induction measured for 5.5 min by turbidometric analysis relative to control. It is filed as functional.
A short description of assay [28]: Antiaggregating activity in Homo sapiens (human) platelet rich plasma assessed as ADP-induced platelet aggregation at 0.1 uM incubated for 4 min prior to ADP-induction measured for 5.5 min by turbidometric analysis (reference value: 54 to 88%). It is filed as functional.
For assay [29], the system named is Platelet. Nature of the assay: Antiaggregating activity in Homo sapiens (human) platelet rich plasma assessed as inhibition of adrenaline-induced platelet aggregation at 0.1 uM incubated for 4 min prior to adrenaline-induction measured for 5.5 min by turbidometric analysis. It is filed as functional, cell-free.
The subject of assay [30] is Platelet. The assay is described as follows: Antiaggregating activity in Homo sapiens (human) platelet rich plasma assessed as inhibition of adrenaline-induced platelet aggregation at 0.25 uM incubated for 4 min prior to adrenaline-induction measured for 5.5 min by turbidometric analysis. It is filed as functional, cell-free.
For assay [31], the system named is Platelet. Nature of the assay: Antiaggregating activity in Homo sapiens (human) platelet rich plasma assessed as inhibition of collagen-induced platelet aggregation at 0.1 uM incubated for 4 min prior to collagen-induction measured for 5.5 min by turbidometric analysis. It is filed as functional, cell-free.
Assay [32] deals with Platelet. The assay is described as follows: Antiaggregating activity in Homo sapiens (human) platelet rich plasma assessed as inhibition of collagen-induced platelet aggregation at 0.25 uM incubated for 4 min prior to collagen-induction measured for 5.5 min by turbidometric analysis. It is filed as functional.
Assay [33] in a line: Antiaggregating activity in Homo sapiens (human) platelet rich plasma assessed as disaggregation of ristocetin-induced platelet aggregation at 0.25 uM incubated for 4 min prior to ristocetin-induction measured for 5.5 min by turbidometric analysis relative to control. Format: functional.
The nature of assay [34]: Antiaggregating activity in Homo sapiens (human) platelet rich plasma assessed as ristocetin-induced platelet aggregation at 0.1 uM incubated for 4 min prior to ristocetin-induction measured for 5.5 min by turbidometric analysis (reference value: 65 to 99%). Format: functional.
A short description of assay [35]: Antiaggregating activity in Homo sapiens (human) platelet rich plasma assessed as arachidonic acid-induced platelet aggregation at 0.1 uM incubated for 4 min prior to arachidonic acid-induction measured for 5.5 min by turbidometric analysis (reference value: 55 to 100%). It is filed as functional.
For assay [36], the system named is Platelet. The assay is described as follows: Antiaggregating activity in Homo sapiens (human) platelet rich plasma assessed as inhibition of arachidonic acid-induced platelet aggregation at 0.25 uM incubated for 4 min prior to arachidonic acid-induction measured for 5.5 min by turbidometric analysis. Format: functional, cell-free.
The subject of assay [37] is Platelet. The assay is described as follows: Antiaggregating activity in Homo sapiens (human) platelet rich plasma assessed as inhibition of ADP-induced platelet aggregation at 0.25 uM incubated for 4 min prior to ADP-induction measured for 5.5 min by turbidometric analysis. It is filed as functional, cell-free.
The test system of assay [38] is Platelet. The assay is described as follows: Antiaggregating activity in Homo sapiens (human) platelet rich plasma assessed as inhibition of ristocetin-induced platelet aggregation at 1 uM incubated for 4 min prior to ristocetin-induction measured for 5.5 min by turbidometric analysis. It is filed as functional, cell-free.
Assay [39] in a line: Antiaggregating activity in Homo sapiens (human) platelet rich plasma assessed as ristocetin-induced platelet aggregation at 0.25 uM incubated for 4 min prior to ristocetin-induction measured for 5.5 min by turbidometric analysis (reference value: 65 to 99%). Format: functional.

Here are results for four compounds from ChEMBL document CHEMBL3046822, “Synthesis, antiplatelet aggregation activity, and molecular modeling study of novel substituted-piperazine analogues” (2011).

Activity calls are given as the source filed them. The calls are words filed in the database; no cut-off is given here.

For the compound `Br.O=C(C1CCCN(Cc2ccc(CN3CCCC(C(=O)N4CCN(c5ccccc5Cl)CC4)C3)cc2)C1)N1CCN(c2ccccc2Cl)CC1` (stereo not given), the inhibition result with Platelet [1], with Platelet [2], in the assay with Platelet [3], with Platelet [4], in the assay on Platelet [5] and in the assay on Platelet [6] was “Active” each time. The inhibition result in the assay on Platelet [7], with Platelet [8], with Platelet [11], in the assay on Platelet [14], in the assay with Platelet [15] and with Platelet [16] was “Active” throughout. Besides, the inhibition result in the assay on Platelet [17], in the assay with Platelet [18], in the assay on Platelet [24] and with Platelet [25] was “Active” in each case. The Activity in [9] is 84%; in assay [10], 27%; in assay [12], 30%; in [13], 35%; in assay [19], 76%; in assay [20], 78%. The figures for the Activity in assay [21], in assay [22] and in assay [23] were 61%, 31% and 58%, respectively.
Turning to `Br.O=C(C1CCCN(Cc2ccc(Br)cc2)C1)N1CCN(c2ccccc2Cl)CC1` (stereo not given), the inhibition entry in the assay on Platelet [2], in the assay on Platelet [4], in the assay on Platelet [5], in the assay with Platelet [6], in the assay with Platelet [7] and with Platelet [26] was “Active” each time. Also, the inhibition result in the assay with Platelet [8], in the assay on Platelet [11], in the assay with Platelet [15], in the assay on Platelet [16], in the assay on Platelet [18] and in the assay on Platelet [24] was “Active” throughout. Also, the inhibition entry in the assay on Platelet [25] was “Active”. Further, the Activity in [9] is recorded as 55%; in assay [10], 20%; in assay [12], 39%; in assay [20], 67%; in assay [21], 62%; in assay [22] it was 53%. The Activity in assay [23] is on record as 56%.
Consider `Cl.O=C(C1CCCN(Cc2ccccc2F)C1)N1CCN(c2ccccc2Cl)CC1` (stereo not given), for which the Activity in [27] is reported as 38%; in [28], 74%; in [12] it was 50%; in assay [13], 73%; in assay [33], 18%; in assay [34], 50%. In addition, the Activity in assay [35] was found to be 59%. Also, the inhibition entry in the assay with Platelet [1], with Platelet [2], in the assay with Platelet [3], in the assay on Platelet [4], in the assay with Platelet [29] and in the assay with Platelet [30] was “Active” throughout. For the same compound, the inhibition result in the assay on Platelet [14], in the assay with Platelet [15], in the assay with Platelet [31], in the assay on Platelet [32], with Platelet [17] and in the assay with Platelet [18] was “Active” each time. Besides, the inhibition result with Platelet [36] was “Active”.
As to `COc1cc(C(=O)[n+]2cccc(C(=O)N3CCN(c4ccccc4Cl)CC3)c2)cc(OC)c1OC.[Cl-]`, the inhibition result in the assay on Platelet [1], with Platelet [2], in the assay with Platelet [3], in the assay with Platelet [4], in the assay on Platelet [30] and with Platelet [37] was “Active” throughout. Moreover, the inhibition entry with Platelet [14], in the assay on Platelet [15], in the assay with Platelet [32], in the assay on Platelet [17], with Platelet [18] and in the assay with Platelet [38] was “Active” throughout. Moreover, in the assay on Platelet [36], the inhibition entry is “Active”. For the same compound, the Activity was 20% in assay [13] and 79% in [39].
